# Values of other authors, collected in patent publication US20070275095A1, “TREATMENT OF INFLAMMATORY, AUTOIMMUNE, OR OTHER DISORDERS, USING AGENTS THAT REDUCE THE SEQUESTERING OF ZINC BY CALPROTECTIN” (priority 2005, published 2007).
# Tests used:
# [1] = clinical trials reviewed in Kidd 2002, Kern et al 2004, Esch et al 2004, Sturmey 2005
# [2] = tested on: calprotectin; settings: zinc binding not measured directly; apoptosis measured (Yui et al 1998 and 2003, Mikami et al 1999)
# [3] = tested on: tumor necrosis factor (TNF); settings: same literature reports
# [4] = tested on: calprotectin; settings: Oyama et al 1997
# [5] = tested on: neutrophil cells; settings: Oyama et al 1997
Compound,clinical trial outcome in autism [1],inhibition of zinc binding by calprotectin [2],inhibition of tumor necrosis factor (TNF) [3],binding to calprotectin molecules in neutrophils [4],suppression of calprotectin release by neutrophils [5]
secretin,mainly negative results,–,–,–,–
O=C1N[C@@H]2C(=C[C@H](O)[C@@H](O)[C@H]2O)c2cc3c(c(O)c21)OCO3 [lycoricidinol],–,"appear to inhibit zinc binding by calprotectin, to some extent",appear to inhibit,–,–
CC(C)c1ccc2oc3nc(N)c(C(=O)O)cc3c(=O)c2c1 [amlexanox],–,–,–,bind to calprotectin molecules contained in the neutrophils,impedes and suppresses the release of calprotectin by the neutrophils
O[C@H]1[C@H]2c3cc4c(cc3CN3CCC(=C[C@@H]1O)[C@H]23)OCO4 [lycorine],–,"appear to inhibit zinc binding by calprotectin, to some extent",appear to inhibit,–,–
